# Results taken from patent EP1209147A1, “CARBOXYLIC ACID DERIVATIVES AND ADHESION MOLECULE INHIBITORS CONTAINING THE SAME AS THE ACTIVE INGREDIENT” (TORAY INDUSTRIES, INC., priority 1999, dated 2001).
# Assays:
# [1] = system: Jurkat cells (ATCC TIB-152); experiment: Influence on cell survival rate (alamarBlue); assay type: cell-based; settings: cultured 24 hours with compound
# Method: Jurkat cells (ATCC TIB-152) passaged on 10% fetal calf serum-containing RPMI medium (10F-RPMI, GIBCO) were suspended in the same medium to a cell population of 5 x 10^5 cells/ml, and the suspension was placed in each well of a 96-well plate (COSTAR) in an amount of 100 µl/well, followed by culturing the cells at 37°C under 5% CO2 for 24 hours. Then alamarBlue®(BioSource) was added in an amount of 10 µl/well and the cells were cultured for another 4 hours. Thereafter, the absorbance at 570 nm and 600 nm was measured with a microplate reader (BioRad model 3550). The test compound dissolved in 10F-RPMI was mixed with the Jurkat cells and the cells were cultured for 24 hours to examine its influence.
# superoxide = experiment: Radical scavenger action (superoxide from xanthine and xanthine oxidase); assay type: biochemical; settings: luminescence at 380 nm, 10 to 60 seconds after xanthine oxidase addition
# Method: The radical scavenger action of the compounds was measured using the amount of the superoxide as an index, which is produced when xanthine and xanthine oxidase are reacted. First, 1 mM of xanthine (SIGMA) dissolved in Hanks buffer solution (GIBCO), 2 mM dietylenetriamine-N,N,N',N"-pentaacetic acid (DOJIN) and 40 µM 2-methyl-6-phenyl-3,7-dihydroimidazo[1,2-a]pyrazin-3-one (TOKYO KASEI KOGYO) dissolved in distilled water when use were mixed. Further, 0.3 U/ml xanthine oxidase (BMY) dissolved in Hanks buffer when use was added. Luminescence intensity at 380 nm from 10 seconds to 60 seconds after the addition was measured by Lumat (Berthold, LB9501), and the measured amount was defined as the amount of produced superoxide. The test compound was added to the xanthine-containing solution before addition of the xanthine oxidase, and the resulting mixture was preincubated at 25°C for 5 minutes to examine its influence.
# Mouse Asthma Model = experiment: Mouse asthma model (OVA/Alum sensitization, OVA inhalation, airway anaphylaxis and BALF eosinophils); assay type: in vivo, BLAB/c mouse; settings: at a dose of not more than 150 mg/kg, topically or systemically
# Method: A mixed solution containing aluminum hydroxide gel (Alum) on which ovalbumin (hereinafter "OVA") was adsorbed (20 ∝g OVA/2mg Alum/200 ∝l physiological saline) was intraperitoneally administered to each BLAB/c mouse (female, 7 weeks old, JAPAN CHARLES RIVER) at a dose of 200 ∝l ([…]) per time on DAY-1 and DAY-14 to sensitize the mouse. Then each mice was made to aspire 2% OVA dissolved in physiological saline on DAY-28, 29 and 30 to induce inflammation. Compound Nos. 143 and 236 used as the test compounds were dissolved in physiological saline and each solution was topically or systemically administered at 30 minutes before induction by OVA, and twice a day after induction.
# On DAY-31, development of airway anaphylaxis was measured using a non-restrictive chamber (BUXCO). Then the bronchus of each mouse was incised and the bronchus and alveoli were washed (BAL) with 0.7 ml of physiological saline. After the washing, the washing fluid (BALF) of the bronchus and alveoli was recovered and centrifuged. The leukocytes contained in the BALF were subjected to site spin to prepare a smear specimen. After staining the specimen by May-Giemsa staining method, the leukocytes were grouped and counted under microscope to determine the number of eosinophils. The experiment was carried out using 6 to 8 mice in each group. The results are shown in terms of mean ± standard error.
SMILES,"influences on the survival rate of the cells relative to 3-(4-((2,6-dichlorophenyl)carbonylamino)phenyl)-2-((6-bromo-2-methylphenyl)carbonylamino)propanoic acid [1]","radical scavenger activities relative to 3-(4-((2,6-dichlorophenyl)carbonylamino)phenyl)-2-((6-bromo-2-methylphenyl)carbonylamino)propanoic acid (superoxide)",accumulation of eosinophils to the lung (Mouse Asthma Model; BALF on DAY-31),progress of airway anaphylaxis (Mouse Asthma Model; DAY-31)
"Cc1cccc(Br)c1C(=O)N[C@@H](Cn1ccc(NC(=O)c2c(Cl)cccc2Cl)nc1=O)C(=O)O [Example 240, (2S)-3-(4-((2,6-dichlorophenyl)carbonylamino)-2-oxohydropyrimidinyl)-2-((2-bromo-6-methylphenyl)carbonylamino)propionic acid]",not more than 1/4,2 to 5 times,–,–
"O=C(Nc1ccn(C[C@H](NC(=O)c2c(Cl)cccc2Cl)C(=O)O)c(=O)n1)c1c(Cl)cccc1Cl [Example 236, (2S)-2-((2,6-dichlorophenyl)carbonylamino)-3-(4-((2,6-dichlorophenyl)carbonylamino)-2-oxohydropyrimidinyl)propionic acid]",not more than 1/4,2 to 5 times,inhibited,inhibited
